Residue numbers refer to the chain shown, from its start.
Assays:
Experiment in all cases: substrate-stimulated ATPase assay (colorimetric Pi release)
Assay type in all cases: biochemical
chABCD1 (chimeric ABCD1) [1] = target: T1, chABCD1 (chimeric ABCD1) (Homo sapiens, UniProt P33897, T693M); conditions: 2 mM ATP, 2 mM MgCl2, LMNG + CHS, pH 7.5, 37 °C, varying C22:0-CoA
T1 construct: single polypeptide: N-terminal FLAG tag, PMP-4 residues 1-65 replacing human ABCD1 residues 1-63, then human ABCD1 64-745; HEK293F; homodimer; LMNG/CHS for assays, digitonin for cryo-EM; with PMP-4 (peroxisomal membrane protein related, ABCD1 homolog, Caenorhabditis elegans; N-terminal segment fused to the target chain)
T1 sequence (P33897 64-745 T693M): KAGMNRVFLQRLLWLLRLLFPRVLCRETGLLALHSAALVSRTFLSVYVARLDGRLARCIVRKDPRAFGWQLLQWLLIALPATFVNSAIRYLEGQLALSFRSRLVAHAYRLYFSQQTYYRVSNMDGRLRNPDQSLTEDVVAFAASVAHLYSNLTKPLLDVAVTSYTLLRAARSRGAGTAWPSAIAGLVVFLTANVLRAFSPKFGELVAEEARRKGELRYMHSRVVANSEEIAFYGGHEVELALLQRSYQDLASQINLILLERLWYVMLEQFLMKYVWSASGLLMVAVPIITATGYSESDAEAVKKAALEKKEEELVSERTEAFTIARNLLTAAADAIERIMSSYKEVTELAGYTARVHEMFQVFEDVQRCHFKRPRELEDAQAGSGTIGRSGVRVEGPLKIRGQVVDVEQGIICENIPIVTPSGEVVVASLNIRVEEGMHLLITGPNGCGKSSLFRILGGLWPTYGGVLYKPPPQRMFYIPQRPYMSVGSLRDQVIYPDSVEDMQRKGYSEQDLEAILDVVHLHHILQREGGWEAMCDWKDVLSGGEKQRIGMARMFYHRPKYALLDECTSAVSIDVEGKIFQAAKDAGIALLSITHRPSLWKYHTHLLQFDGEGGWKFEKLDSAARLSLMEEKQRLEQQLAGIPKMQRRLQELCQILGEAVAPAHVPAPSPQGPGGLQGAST

chABCD1 (chimeric ABCD1) [2] = target: T2, chABCD1 (chimeric ABCD1) (Homo sapiens, UniProt P33897, G343V); conditions: 5 μM C22:0-CoA, 2 mM ATP, 2 mM MgCl2, LMNG + CHS, pH 7.5, 37 °C
T2 construct: single polypeptide: N-terminal FLAG tag, PMP-4 residues 1-65 replacing human ABCD1 residues 1-63, then human ABCD1 64-745; HEK293F; homodimer; LMNG/CHS for assays, digitonin for cryo-EM; with PMP-4 (peroxisomal membrane protein related, ABCD1 homolog, Caenorhabditis elegans; N-terminal segment fused to the target chain)
T2 sequence (P33897 64-745 G343V): T1 sequence (P33897 64-745 T693M) with G280V, M630T

chABCD1 (chimeric ABCD1) [3] = target: T3, chABCD1 (chimeric ABCD1) (Homo sapiens, UniProt P33897, DEL694-745)
T3 construct: single polypeptide: N-terminal FLAG tag, PMP-4 residues 1-65 replacing human ABCD1 residues 1-63, then human ABCD1 64-745; HEK293F; homodimer; LMNG/CHS for assays, digitonin for cryo-EM; with PMP-4 (peroxisomal membrane protein related, ABCD1 homolog, Caenorhabditis elegans; N-terminal segment fused to the target chain)
T3 sequence (P33897 64-693): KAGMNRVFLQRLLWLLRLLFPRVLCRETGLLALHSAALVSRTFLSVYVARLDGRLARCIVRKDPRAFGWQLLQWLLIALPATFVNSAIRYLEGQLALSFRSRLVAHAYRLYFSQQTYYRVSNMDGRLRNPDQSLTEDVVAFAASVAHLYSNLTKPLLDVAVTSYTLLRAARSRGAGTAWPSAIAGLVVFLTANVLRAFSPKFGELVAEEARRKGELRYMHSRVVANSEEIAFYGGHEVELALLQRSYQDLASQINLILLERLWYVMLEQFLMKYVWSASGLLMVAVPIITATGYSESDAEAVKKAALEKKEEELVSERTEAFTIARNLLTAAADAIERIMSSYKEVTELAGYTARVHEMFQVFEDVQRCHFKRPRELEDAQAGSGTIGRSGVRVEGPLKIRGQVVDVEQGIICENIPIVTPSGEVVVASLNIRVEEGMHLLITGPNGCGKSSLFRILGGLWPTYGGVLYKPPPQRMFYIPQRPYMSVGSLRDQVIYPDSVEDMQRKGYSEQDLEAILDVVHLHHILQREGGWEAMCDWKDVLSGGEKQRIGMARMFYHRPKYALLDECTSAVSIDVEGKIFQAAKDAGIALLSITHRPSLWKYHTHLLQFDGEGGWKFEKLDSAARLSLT

chABCD1 (chimeric ABCD1) [4] = target: T4, chABCD1 (chimeric ABCD1) (Homo sapiens, UniProt P33897)
T4 construct: single polypeptide: N-terminal FLAG tag, PMP-4 residues 1-65 replacing human ABCD1 residues 1-63, then human ABCD1 64-745; HEK293F; homodimer; LMNG/CHS for assays, digitonin for cryo-EM; with PMP-4 (peroxisomal membrane protein related, ABCD1 homolog, Caenorhabditis elegans; N-terminal segment fused to the target chain)
T4 sequence (P33897 64-745): T1 sequence (P33897 64-745 T693M) with M630T

EC50 (chABCD1 (chimeric ABCD1) [3]): ~4 µM | EC50 (chABCD1 (chimeric ABCD1) [4]): ~2 µM
SMILES: CCCCCCCCCCCCCCCCCCCCCC(=O)SCCNC(=O)CCNC(=O)[C@H](O)C(C)(C)COP(=O)(O)OP(=O)(O)OC[C@H]1O[C@@H](n2cnc3c(N)ncnc32)[C@H](O)[C@@H]1OP(=O)(O)O [C22:0-CoA]
ATPase activity (chABCD1 (chimeric ABCD1) [1]): ATPase activity assays of T693M mutant, which showed an almost non-detectable activity | relative ATPase activity (chABCD1 (chimeric ABCD1) [2]): displayed significantly decreased substrate-simulated ATPase activity, compared to the wild-type
